{"source": "patent US9663478B2", "about": "“Benzotriazine oxides as drugs targeting Mycobacterium tuberculosis” (priority 2011, dated 2017)", "key": {"NRP Mtb H37Rv cells": {"tested_on": "NRP Mtb H37Rv cells", "assay": "Low-oxygen recovery assay (LORA) MIC", "type": "cell-based, Mycobacterium tuberculosis", "conditions": "for LORA MIC: Tables P1, P2, non-replicating M. tuberculosis; for MIC: Mycobacterium tuberculosis, H37RV, NRP Mtb, Tables 1-4 and text, read-out: LORA MIC - ITR"}, "Mtb H37Rv [1]": {"tested_on": "Mtb H37Rv", "assay": "TB MIC - ITR (UIC), Institute for Tuberculosis Research", "type": "cell-based, Mycobacterium tuberculosis", "conditions": "for TB MIC - UIC: Tables P1, P2; for MIC: Mycobacterium tuberculosis, H37RV, Tables 1-4, read-out: TB MIC - ITR"}, "Mtb H37Rv [2]": {"tested_on": "Mtb H37Rv", "assay": "TB MIC - SRI, resazurin-based microplate assay", "type": "cell-based, Mycobacterium tuberculosis", "conditions": "Mycobacterium tuberculosis, H37RV, read-out: TB MIC - SRI"}, "in vitro": {"assay": "in vitro", "conditions": "African green monkey, VERO Tox (CC50)"}}}
{"smiles": "C[C@@H](Nc1n[n+]([O-])c2ccccc2[n+]1[O-])C1CCCCC1", "note": "(racemic) [SRI-012261]", "values": [{"measurement": "LORA MIC", "setting": "NRP Mtb H37Rv cells", "value": 0.36, "unit": "µg/mL"}, {"measurement": "TB MIC - UIC", "setting": "Mtb H37Rv [1]", "value": 0.92, "unit": "µg/mL"}, {"measurement": "MIC", "setting": "Mtb H37Rv [2]; Tables P1-P3", "value": 1.25, "unit": "µg/mL"}, {"measurement": "CC50 at 72 h", "setting": "in vitro", "value": 8.9, "unit": "µg/mL"}]}
{"smiles": "[O-][n+]1nc(N[C@@H]2C[C@H]3CC[C@@H]2C3)[n+]([O-])c2ccccc21", "note": "(racemic) [SRI-012264]", "values": [{"measurement": "LORA MIC", "setting": "NRP Mtb H37Rv cells", "value": 0.42, "unit": "µg/mL"}, {"measurement": "TB MIC - UIC", "setting": "Mtb H37Rv [1]", "value": 0.6, "unit": "µg/mL"}, {"measurement": "MIC", "setting": "Mtb H37Rv [2]; Tables P1-P3", "value": 0.625, "unit": "µg/mL"}, {"measurement": "CC50 at 72 h", "setting": "in vitro", "value": 3.4, "unit": "µg/mL"}]}
{"smiles": "C[C@@H]1[C@H]2C[C@@H](C[C@H]1Nc1n[n+]([O-])c3ccccc3[n+]1[O-])C2(C)C", "note": "(racemic) [SRI-012273]", "values": [{"measurement": "LORA MIC", "setting": "NRP Mtb H37Rv cells", "value": 0.48, "unit": "µg/mL"}, {"measurement": "TB MIC - UIC", "setting": "Mtb H37Rv [1]", "value": 0.48, "unit": "µg/mL"}, {"measurement": "MIC", "setting": "Mtb H37Rv [2]; Tables P1-P3", "value": 1.25, "unit": "µg/mL"}, {"measurement": "CC50 at 72 h", "setting": "in vitro", "value": 4.6, "unit": "µg/mL"}]}
{"smiles": "CC(=O)Nc1cc(/C=C/c2ccc([N+](=O)[O-])o2)ns1", "note": "[Cmpd 2]", "values": [{"measurement": "MIC", "setting": "NRP Mtb H37Rv cells", "value": 3.7, "unit": "µg/mL"}, {"measurement": "MIC", "setting": "Mtb H37Rv [1]", "value": 3.8, "unit": "µg/mL"}, {"measurement": "MIC", "setting": "Mtb H37Rv [2]; Tables 1-4 and text", "value": 0.98, "unit": "µg/mL"}, {"measurement": "CC50 at 72 h", "setting": "in vitro", "value": "> 50", "unit": "µg/mL"}]}
{"smiles": "CCC(COC)Nc1n[n+]([O-])c2ccccc2[n+]1[O-]", "note": "(stereo not drawn) [Compound 8i, 3-((1-methoxybutan-2-yl)amino)benzo[e][1,2,4]triazine 1,4-dioxide]", "values": [{"measurement": "MIC", "setting": "NRP Mtb H37Rv cells", "value": 4.9, "unit": "µg/mL"}, {"measurement": "MIC", "setting": "Mtb H37Rv [1]", "value": 6.6, "unit": "µg/mL"}, {"measurement": "MIC", "setting": "Mtb H37Rv [2]; Tables 1-4 and text", "value": 10, "unit": "µg/mL"}, {"measurement": "CC50 at 72 h", "setting": "in vitro", "value": "> 50", "unit": "µg/mL"}]}
{"smiles": "CCC(COC)Nc1n[n+]([O-])c2cc(F)ccc2[n+]1[O-]", "note": "(stereo not drawn) [Compound 15ai, 7-fluoro-3-((1-methoxybutan-2-yl)amino)benzo[e][1,2,4]triazine 1,4-dioxide]", "values": [{"measurement": "MIC", "setting": "NRP Mtb H37Rv cells", "value": 1.9, "unit": "µg/mL"}, {"measurement": "MIC", "setting": "Mtb H37Rv [1]", "value": 2, "unit": "µg/mL"}, {"measurement": "MIC", "setting": "Mtb H37Rv [2]; Tables 1-4 and text", "value": 5, "unit": "µg/mL"}, {"measurement": "CC50 at 72 h", "setting": "in vitro", "value": 6.3, "unit": "µg/mL"}]}
{"smiles": "CCC(COC)Nc1n[n+]([O-])c2cc(Cl)ccc2[n+]1[O-]", "note": "(stereo not drawn) [Compound 15bi, 7-chloro-3-((1-methoxybutan-2-yl)amino)benzo[e][1,2,4]triazine 1,4-dioxide]", "values": [{"measurement": "MIC", "setting": "NRP Mtb H37Rv cells", "value": 0.78, "unit": "µg/mL"}, {"measurement": "MIC", "setting": "Mtb H37Rv [1]", "value": 1.4, "unit": "µg/mL"}, {"measurement": "MIC", "setting": "Mtb H37Rv [2]; Tables 1-4 and text", "value": 1.2, "unit": "µg/mL"}, {"measurement": "CC50 at 72 h", "setting": "in vitro", "value": 2.6, "unit": "µg/mL"}]}
{"smiles": "CC(C)(C)C1CCC(Nc2n[n+]([O-])c3ccccc3[n+]2[O-])CC1", "note": "(stereo not drawn) [SRI-012257]", "values": [{"measurement": "LORA MIC", "setting": "NRP Mtb H37Rv cells", "value": "< 0.125", "unit": "µg/mL"}, {"measurement": "TB MIC - UIC", "setting": "Mtb H37Rv [1]", "value": 0.22, "unit": "µg/mL"}, {"measurement": "MIC", "setting": "Mtb H37Rv [2]; Tables P1-P3", "value": 0.625, "unit": "µg/mL"}, {"measurement": "CC50 at 72 h", "setting": "in vitro", "value": 2.3, "unit": "µg/mL"}]}
{"smiles": "CC(C)CCC(C)Nc1n[n+]([O-])c2ccccc2[n+]1[O-]", "note": "(stereo not drawn) [SRI-012259]", "values": [{"measurement": "LORA MIC", "setting": "NRP Mtb H37Rv cells", "value": 0.38, "unit": "µg/mL"}, {"measurement": "TB MIC - UIC", "setting": "Mtb H37Rv [1]", "value": 0.52, "unit": "µg/mL"}, {"measurement": "MIC", "setting": "Mtb H37Rv [2]; Tables P1-P3", "value": 1.25, "unit": "µg/mL"}, {"measurement": "CC50 at 72 h", "setting": "in vitro", "value": 4.1, "unit": "µg/mL"}]}
{"smiles": "[O-][n+]1nc(NC2CCC2)[n+]([O-])c2ccccc21", "note": "[SRI-012260]", "values": [{"measurement": "LORA MIC", "setting": "NRP Mtb H37Rv cells", "value": 0.84, "unit": "µg/mL"}, {"measurement": "TB MIC - UIC", "setting": "Mtb H37Rv [1]", "value": 0.94, "unit": "µg/mL"}, {"measurement": "MIC", "setting": "Mtb H37Rv [2]; Tables P1-P3", "value": 1.25, "unit": "µg/mL"}, {"measurement": "CC50 at 72 h", "setting": "in vitro", "value": 8.9, "unit": "µg/mL"}]}
{"smiles": "CCC(C)Nc1n[n+]([O-])c2ccccc2[n+]1[O-]", "note": "(stereo not drawn) [SRI-012262]", "values": [{"measurement": "LORA MIC", "setting": "NRP Mtb H37Rv cells", "value": 1.28, "unit": "µg/mL"}, {"measurement": "TB MIC - UIC", "setting": "Mtb H37Rv [1]", "value": 2, "unit": "µg/mL"}, {"measurement": "MIC", "setting": "Mtb H37Rv [2]; Tables P1-P3", "value": 2.5, "unit": "µg/mL"}, {"measurement": "CC50 at 72 h", "setting": "in vitro", "value": 21.6, "unit": "µg/mL"}]}
{"smiles": "CC(C)CC(C)Nc1n[n+]([O-])c2ccccc2[n+]1[O-]", "note": "(stereo not drawn) [SRI-012263]", "values": [{"measurement": "LORA MIC", "setting": "NRP Mtb H37Rv cells", "value": 0.83, "unit": "µg/mL"}, {"measurement": "TB MIC - UIC", "setting": "Mtb H37Rv [1]", "value": 1.98, "unit": "µg/mL"}, {"measurement": "MIC", "setting": "Mtb H37Rv [2]; Tables P1-P3", "value": 2.5, "unit": "µg/mL"}, {"measurement": "CC50 at 72 h", "setting": "in vitro", "value": 11.7, "unit": "µg/mL"}]}
{"smiles": "[O-][n+]1nc(NC2CCCCC2)[n+]([O-])c2ccccc21", "note": "[SRI-012266]", "values": [{"measurement": "LORA MIC", "setting": "NRP Mtb H37Rv cells", "value": 0.75, "unit": "µg/mL"}, {"measurement": "TB MIC - UIC", "setting": "Mtb H37Rv [1]", "value": 3.77, "unit": "µg/mL"}, {"measurement": "CC50 at 72 h", "setting": "in vitro", "value": 8.9, "unit": "µg/mL"}]}
{"smiles": "CC(C)C(C)Nc1n[n+]([O-])c2ccccc2[n+]1[O-]", "note": "(stereo not drawn) [SRI-012267]", "values": [{"measurement": "LORA MIC", "setting": "NRP Mtb H37Rv cells", "value": 0.98, "unit": "µg/mL"}, {"measurement": "TB MIC - UIC", "setting": "Mtb H37Rv [1]", "value": 1.93, "unit": "µg/mL"}, {"measurement": "MIC", "setting": "Mtb H37Rv [2]; Tables P1-P3", "value": 5, "unit": "µg/mL"}, {"measurement": "CC50 at 72 h", "setting": "in vitro", "value": 21, "unit": "µg/mL"}]}
{"smiles": "CC(Nc1n[n+]([O-])c2ccccc2[n+]1[O-])C(C)(C)C", "note": "(stereo not drawn) [SRI-012268]", "values": [{"measurement": "LORA MIC", "setting": "NRP Mtb H37Rv cells", "value": 1, "unit": "µg/mL"}, {"measurement": "TB MIC - UIC", "setting": "Mtb H37Rv [1]", "value": 2.43, "unit": "µg/mL"}, {"measurement": "MIC", "setting": "Mtb H37Rv [2]; Tables P1-P3", "value": 5, "unit": "µg/mL"}, {"measurement": "CC50 at 72 h", "setting": "in vitro", "value": 20.2, "unit": "µg/mL"}]}
{"smiles": "[O-][n+]1nc(NC2[C@H]3C[C@@H]4C[C@@H](C[C@H]2C4)C3)[n+]([O-])c2ccccc21", "note": "(stereo partly drawn) [SRI-012269]", "values": [{"measurement": "LORA MIC", "setting": "NRP Mtb H37Rv cells", "value": 2.33, "unit": "µg/mL"}, {"measurement": "TB MIC - UIC", "setting": "Mtb H37Rv [1]", "value": 1.91, "unit": "µg/mL"}, {"measurement": "MIC", "setting": "Mtb H37Rv [2]; Tables P1-P3", "value": 2.5, "unit": "µg/mL"}, {"measurement": "CC50 at 72 h", "setting": "in vitro", "value": 7.3, "unit": "µg/mL"}]}
{"smiles": "CC1CC(Nc2n[n+]([O-])c3ccccc3[n+]2[O-])CC(C)(C)C1", "note": "(stereo not drawn) [SRI-012270]", "values": [{"measurement": "LORA MIC", "setting": "NRP Mtb H37Rv cells", "value": 0.39, "unit": "µg/mL"}, {"measurement": "TB MIC - UIC", "setting": "Mtb H37Rv [1]", "value": 0.57, "unit": "µg/mL"}, {"measurement": "MIC", "setting": "Mtb H37Rv [2]; Tables P1-P3", "value": 1.25, "unit": "µg/mL"}, {"measurement": "CC50 at 72 h", "setting": "in vitro", "value": 5.2, "unit": "µg/mL"}]}
{"smiles": "CCC(CC)Nc1n[n+]([O-])c2ccccc2[n+]1[O-]", "note": "[SRI-012271]", "values": [{"measurement": "LORA MIC", "setting": "NRP Mtb H37Rv cells", "value": 1.94, "unit": "µg/mL"}, {"measurement": "TB MIC - UIC", "setting": "Mtb H37Rv [1]", "value": 3.63, "unit": "µg/mL"}, {"measurement": "MIC", "setting": "Mtb H37Rv [2]; Tables P1-P3", "value": 5, "unit": "µg/mL"}, {"measurement": "CC50 at 72 h", "setting": "in vitro", "value": 36.5, "unit": "µg/mL"}]}
{"smiles": "CCC(COC)Nc1n[n+]([O-])c2ccccc2[n+]1[O-]", "note": "(stereo not drawn) [SRI-012272]", "values": [{"measurement": "LORA MIC", "setting": "NRP Mtb H37Rv cells", "value": 4.87, "unit": "µg/mL"}, {"measurement": "TB MIC - UIC", "setting": "Mtb H37Rv [1]", "value": 6.57, "unit": "µg/mL"}, {"measurement": "MIC", "setting": "Mtb H37Rv [2]; Tables P1-P3", "value": 10, "unit": "µg/mL"}, {"measurement": "CC50 at 72 h", "setting": "in vitro", "value": 50, "unit": "µg/mL"}]}
